{"source": "patent US8097581B2", "about": "“Anti-wrinkle cosmetic composition” (Grant Industries Inc., priority 2007, dated 2012)", "key": {"fibroblast cultures": {"system": "fibroblast cultures", "experiment": "Total protein production stimulation (method of Skehan et al.)", "type": "cell-based, human", "conditions": "10 ng/ml; positive control", "experimental": "The stimulation of metabolic activity by RD1071 also translated into an increase of total protein content in fibroblast cultures. […] For example, UV radiation and aging are associated with the increased proteolytic activity in the skin. The stimulation of total protein production could counterbalance the loss of proteins caused by this increased proteolytic activity. Total protein was measured using the method of Skehan et al. (1990). […] The basic fibroblast growth factor, bFGF, was again used as a positive control."}, "[1]": {"system": "human dermal fibroblast cultures", "experiment": "Stimulation of mitochondrial metabolic activity (MTT method)", "type": "cell-based", "conditions": "10 ng/ml; positive control", "text": "In order to maintain youthful appearance, skin needs to constantly replace and regenerate its damaged components. This is predominantly the role of dermal fibroblasts. How well this job is done depends on the metabolic vigor of these cells as damaged or dormant fibroblasts will not be able to actively produce the replacement parts for the skin. This is why the stimulation of their metabolic activity is viewed as beneficial to the skin, not unlike the stimulation of metabolic activity is beneficial to the muscle. We tested the effect of RD1071 on the metabolic activity of mitochondria of human dermal fibroblast cultures using MTT method (Berridge et al., 1993). Mitochondria are cellular powerhouses producing energy (ATP) for the entire cell. […] Thus, example 1 (RD1071) increases cellular metabolism in a dose-dependant manner. The positive control in this experiment is use of basic fibroblast growth factor, bFGF at 10 ng/ml concentration."}}, "data": [{"substance": "bFGF: basic fibroblast growth factor, positive control at 10 ng/ml", "values": [{"measurement": "Protein Stimulation % Control", "setting": "fibroblast cultures", "result": 118, "unit": "% Control"}, {"measurement": "Mitochondrial Metabolism % Control", "setting": "[1]", "result": 174, "unit": "% Control"}]}]}
